Data reported in patent publication US20090104235A1, “Method for Producing of a Preparation of a Solid Dmso-Containing Silicone Oil Emulsion for the Binding of Reactive Oxygen Compounds in Human and Animal Bodies” (priority 2005, published 2009).

Legend:
[1] = DMSO application quantity needed for the same effect; comparison with pure DMSO; assay type: in vivo, human; settings: dose of pure DMSO, without silicone emulsion
Procedure: With standard preparations for the treatment of chronic diseases among humans, DMSO can be prescribed in a dose of up to 1 g/kg of body weight. A toxic effect only occurs among humans when over 1 g/kg DMSO is supplied (N. M. Luerry et al. Drug. Intell. Clin. Pharm. 18, 591 [1984]). Due to the silicone emulsion according to the invention, the same effect is achieved among humans with an application quantity of DMSO of 1 mg/kg of body weight. With the silicone emulsion according to the invention, the quantity of DMSO to be applied is therefore reduced to 1/1000th of the application quantity used to date.

[2] = among humans; N. M. Luerry et al. 1984; cited from earlier work
[3] = Case report: morbus Bechterev patient with chronic pain, daily suppository application; assay type: in vivo, human
Text: […]: morbus Bechterev for over 10 years. Treatment of chronic pain with Celebrex.

Question: With `C[S+](C)[O-]` [DMSO, dimethylsulphoxide] as the compound, how does the “pain-relieving and inflammation-restricting effect” value [1] read?
Answer: Its value is “does not lead to the high pain-relieving and inflammation-restricting effect”.

Question: What about the “dose at which a toxic effect occurs” value [2] of the same compound?
Answer: The value was “over 1 g/kg”.

Question: Which side effects ([3]; morbus Bechterev patient) does the source give for `Cc1ccc(-c2cc(C(F)(F)F)nn2-c2ccc(S(N)(=O)=O)cc2)cc1` [Celebrex] here?
Answer: Its side effects is “clearly cause difficulty to the patient”.

Question: What about the “influence on disease progression” value ([3]; treatment of chronic pain, morbus Bechterev for over 10 years) of the same compound?
Answer: The value was “can also not be significantly influenced”.
